The values below come from patent US6271369A, “Chimeric molecules targeted to viral RNAs” (priority 1997, dated 2001).

Entries after “also recorded” stand apart in the source; their conditions may differ.

The data set concerns TAR:A25 :vif RNA. In words: Site-directed cleavage of TAR:A25:vif RNA in Daudi cell extract. Type of data set: biochemical, HIV-1. The source says: To determine the ability of the 2-5A:AS chimeric molecule SEQ ID NO:1 to induce site-directed RNA cleavage, a target RNA was constructed having an internal 3',5'-oligo(rA) tract. Hybridization between the (dT18) in SEQ ID NO:1 with the oligo(rA) in the target RNA attracts 2-5A-dependent RNase to the target RNA, resulting in a highly specific cleavage event. The experimental target, TAR:A25 :vif RNA, was produced in vitro from a pSP64-derived plasmid containing a partial cDNA for the HIV vif protein interrupted with 25 adenylyl residues. A control TAR:vif RNA was constructed with the A25 tract deleted. These RNA species, which lack 3'-poly(rA) tails, were radiolabeled at their 3'-termini with [5'-^32 p)-pCp by T4 RNA ligase and gel purified prior to the assay.
The 2-5A:AS strategy for site-directed RNA cleavage was next tested in a cell-free system consisting of a postribosomal supernatant fraction of human lymphoblastoid Daudi cells.
Daudi cell extracts prepared with dounce homogenization were made by the well known method of Wreschner, et al. in a buffer containing 40mM KCl; 10 mM HEPES pH 7.5; 2.5mM magnesium acetate; 0.5mM ATP; 2.5% glycerol and 2.0mM mercaptoethanol. The extract used in the RNA cleavage assays was the supernatant of a 100,000 ×g centrifugation of cell extract. About 100 nM radiolabeled RNA (approximately 25,000 counts/min/assay) was incubated with oligonucleotides at 30° C. in extract (10μl) supplemented with 75mM KCl in a final volume of 20 μl. Reactions were terminated and the RNA was extracted with phenollchloroform. The RNA was then ethanol precipitated and redissolved in sterile water and an equal volume of formamide gel sample buffer. Cleavage products were analyzed in 6% polyacrylamide/8M urea gels (30×40×0.04cm).
The cleavage reaction was performed after adding SEQ ID NO:l and purified radiolabeled TAR:A25 :vif RNA to the Daudi cell extract (without preannealing) followed by incubation at 30° C. In the absence of added oligonucleotide, the TAR:A25 :vif RNA was degraded with a half-life of about 90 minutes.
An experiment was conducted to analyze (A) the in vitro transcription of AccI restriction endonuclease-digested plasmids containing TAR:A25 :vif and TAR:vif sequences and (B) the specific cleavage of TAR:A25 ;vif RNA induced by SEQ ID NO:1 (100nM) in extracts of Daudi cells as a function of time. The breakdown of TAR:A25 :vif RNA (intact RNA) was proportional to the appearance of the specific cleavage product. Data was obtained by running a gel with the products of the experiment and then making an autoradiogram of the dried gel. The autoradiogram was then subjected to image analysis with a video camera (Sierra Scientific) and the QUICKCAPTURE.COPYRGT. (Marlboro, Mass.) and IMAGE.COPYRGT. computer programs run on a MACINTOSH IIci.cndot. computer. The percentage of RNA shown in FIG. 6 was based on the sum of the intact RNA and the specific RNA cleavage product.
Cleavage of TAR:A25 :vif RNA (about 100 nM) as a function of SEQ ID NO:1 concentration was also measured. The cleavage reaction was allowed to continue for 30 minutes in Daudi cell extract at 30° C. The levels of the specific cleavage products (relative peak areas) were determined from an autoradiogram as described in relation to FIG. 6 above. The results shown in FIGS. 6 and 7 were reproduced three times.

[1] abbreviates: about 100 nM RNA, 30 minutes, 30° C., FIG. 7.

On to “p5'A2'(p5'A2')2 P5'A2'p1[OCH2 (CH2)2 CH2 O]4p1[OCH2 (CH2)2 CH2 O]4p5'pdT3'(p5'dt3')16 p5'dt (AAAATTTTTTTTTTTTTTTTTT; chemistry not fully specified) [SEQ ID NO:1]”, for which the “incubation time for 50% breakdown to the specific cleavage product” value (100 nM, Daudi extract, 30° C., FIG. 6) is 20 min. For the same substance, the “incubation time after which breakdown to cleavage product could be seen clearly” value (Daudi extract, 30° C.) was 5 min. In addition, the “specific cleavage of TAR:A25:vif RNA” value (Daudi extract, 30° C., 30 minutes) is given as “nearly quantitative conversion of the intact RNA to a specific cleavage product; also recorded: Specific cleavage of the substrate was observed”. For the same substance, under setting [1], the “lowest concentration at which cleavage reaction was observed” value was 25 nM and the “optimal concentration for the cleavage reaction” value came to 250 nM. Besides, the “increase of rate of breakdown of TAR:A25:vif RNA” value (versus no added oligonucleotide (half-life about 90 minutes)) was “more than four-fold”.
